Measured values from patent publication US8785422B2, “A-ring modified 19-nor-vitamin D analogs and their uses” (Wisconsin Alumni Research Foundation, priority 2012, dated 2014).
Entries after “also recorded” stand apart in the source; their conditions may differ.

Legend:
[1] = test system: 24-hydroxylase (24 Ohase) gene promoter upstream of a luciferase reporter gene in ROS 1.7/2.8 (bone) cells; assay: In vitro transcription assay (luciferase reporter); assay type: cell-based; settings: 24-hydroxylase promoter luciferase, sixteen hours after dosing; FIG. 3; read-out: EC50, stimulation of gene transcription in bone cells
Experimental: In Vitro Transcription Assay.
Transcription activity was measured in ROS 1.7/2.8 (bone) cells that were stably transfected with a 24-hydroxylase (24 Ohase) gene promoter upstream of a luciferase reporter gene. (See Arbour et al., 1998). Cells were given a range of doses. Sixteen hours after dosing the cells were harvested and luciferase activities were measured using a luminometer. RLU=relative luciferase units.

[2] = test system: Human promyelocyte leukemia (HL60) cells; assay: HL-60 differentiation (nitro blue tetrazolium reduction); assay type: cell-based; settings: four days, FIG. 2
Experimental: The study drugs were dissolved in ethanol and the concentrations determined using UV spectrophotometry. Serial dilutions were prepared so that a range of drug concentrations could be tested without changing the final concentration of ethanol (≦0.2%) present in the cell cultures.
Human promyelocyte leukemia (HL60) cells were grown in RPMI-1640 medium containing 10% fetal bovine serum. The cells were incubated at 37° C. in the presence of 5% CO2.
HL60 cells were plated at 1.2×10^5 cells/ml. Eighteen hours after plating, cells in duplicate were treated with drug. Four days later, the cells were harvested and a nitro blue tetrazolium reduction assay was performed. (See Collins et al., 1979: J. Exp. Med. 149:969-974), The percentage of differentiated cells was determined by counting a total of 200 cells and recording the number that, contained intracellular black-blue formazan deposits. Verification of differentiation to monocytic cells was determined by measuring phagocytic activity.

[3] = test system: bone calcium mobilization; assay: Bone calcium mobilization (serum calcium) in vitamin D-deficient rats; assay type: in vivo, Sprague-Dawley rats; settings: low calcium diet (0.02%), ip once daily for 4 consecutive days, DA2HE up to 35100 pmol/day, FIG. 4
Source text: (§1) Intestinal Calcium Transport and Bone Calcium Mobilization Male, weanling Sprague-Dawley rats were placed on Diet 11 (see Suda et al., J. Nutr. 100:1049, 1970) (0.47% Ca)+vitamins AEK for one week followed by Diet 11 (0.02% Ca)+vitamins AEK for 3 weeks. The rats were then switched to the same diet containing 0.47% Ca for one week followed by two weeks on the same diet containing 0.02% Ca. Dose administration began during the last week on 0.02% calcium diet. Four consecutive ip doses were given approximately 24 hours apart. Twenty-four hours after the last dose, blood was collected from the severed neck and the concentration of serum calcium determined by atomic absorption spectrometry as a measure of bone calcium mobilization. The first 10 cm of the intestine was also collected for intestinal calcium transport analysis using the everted gut sac method.

[4] = biological target: T1, full-length recombinant rat vitamin D receptor (Rattus norvegicus, UniProt P13053); assay: Vitamin D receptor binding, competition with [3H]-1,25(OH)2D3; settings: FIG. 1
T1 construct: Full-length recombinant rat receptor was expressed in E. coli BL21 (DE3) Codon Plus RIL cells; histidine tag (C); made in house; host or cells: E. coli BL21 (DE3) Codon Plus RIL
T1 sequence (P13053 1-423): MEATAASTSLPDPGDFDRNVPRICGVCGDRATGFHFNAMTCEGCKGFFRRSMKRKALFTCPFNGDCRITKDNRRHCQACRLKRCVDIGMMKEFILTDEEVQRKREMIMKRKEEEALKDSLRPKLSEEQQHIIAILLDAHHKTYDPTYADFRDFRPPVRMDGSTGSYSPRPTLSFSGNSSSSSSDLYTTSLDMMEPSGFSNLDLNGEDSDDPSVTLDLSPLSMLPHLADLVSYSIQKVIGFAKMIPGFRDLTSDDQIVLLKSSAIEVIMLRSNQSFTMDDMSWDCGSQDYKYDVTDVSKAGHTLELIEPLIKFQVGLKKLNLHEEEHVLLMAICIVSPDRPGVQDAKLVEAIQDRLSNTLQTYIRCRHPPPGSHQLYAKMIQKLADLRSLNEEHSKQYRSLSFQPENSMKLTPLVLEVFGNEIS
Source text: Vitamin D Receptor Binding
Full-length recombinant rat receptor was expressed in E. coli BL21 (DE3) Codon Plus RIL cells and purified to homogeneity using two different column chromatography systems. The first system was a nickel affinity resin that utilizes the C-terminal histidine tag on this protein. The protein that was eluted from this resin was further purified using ion exchange chromatography (S-Sepharose Fast Flow). Aliquots of the purified protein were quick frozen in liquid nitrogen and stored at −80° C. until use. For use in binding assays, the protein was diluted in TEDK50 (50 mM Tris, 1.5 mM EDTA, pH 7.4, 5 mM DTT, 150 mM KCI) with 0.1% Chaps detergent. The receptor protein and ligand concentration was optimized such that no more than 20% of the added radiolabeled ligand was bound to the receptor.
Assay Conditions. Radiolabeled and unlabeled ligands were added to 100 mcl of the diluted protein at a final ethanol concentration of ≦10%, mixed and incubated overnight on ice to reach binding equilibrium. The following day, 100 mcl of hydroxylapatite slurry (50%) was added to each tube and mixed at 10-minute intervals for 30 minutes. The hydroxylapaptite was collected by centrifugation and then washed three times with Tris-EDTA buffer (50 mM Tris, 1.5 mM EDTA, phi 7.4) containing 0.5% Triton X-100. After the final wash, the pellets were transferred to scintillation vials containing 4 ml of Biosafe II scintillation cocktail, mixed and placed in a scintillation counter. Total binding was determined from the tubes containing only radiolabeled ligand.

[5] = test system: intestinal calcium transport; assay: Intestinal calcium transport (everted gut sac) in vitamin D-deficient rats; assay type: in vivo, Sprague-Dawley rats; settings: 4 consecutive ip doses, FIG. 5
Source text: as §1

| Structure (SMILES) | EC50 [1] [nM] | EC50 [2] [nM] | bone calcium mobilization activity (serum calcium) [3] | VDR binding activity relative to 1α,25-dihydroxyvitamin D3 ([4]; compared to natural hormone) | Ki ([4]; full-length recombinant rat vitamin D receptor, read-out: Ki, competition with [3H]-1,25(OH)2D3 for binding to VDR) [nM] | VDR binding activity relative to standard 1α,25-(OH)2D3, in log ([4]; less activity than standard) | potency in promoting active calcium transport across the gut relative to 1α,25(OH)2D3 [5] | intestinal calcium transport activity ([5]; low calcium diet (0.02%), everted gut sac) | EC50 ([2]; Homo sapiens, HL-60, 96 h) [nM] |
| --- | --- | --- | --- | --- | --- | --- | --- | --- | --- |
| C=C1/C(=C\C=C2/CCC[C@]3(C)[C@@H]([C@H](C)CCCC(C)(C)O)CC[C@@H]23)C[C@@H](O)C[C@@H]1O [1α,25-dihydroxyvitamin D3, reference compound] | 0.08 | 3 | increased serum calcium levels | – | – | – | – | – | – |
| C[C@H](CCCC(C)(C)O)C1CCC2/C(=C/C=C(CCO)CCO)CCC[C@@]21C (some centres unmarked) [DA2HE, seco-A-2,19-dinor-1,25-dihydroxyvitamin D3] | 40 | – | lacks any bone calcium mobilization activity; also recorded: no mobilization of bone calcium | about 10 times less activity | 0.4 | about one | about 10 times less potent | relatively high intestinal calcium transport activity which increases in a dose dependent manner | 300 |
